Test [1] has as its target isolated recombinant JAK2 kinase domain (Homo sapiens (Human), UniProt O60674). The experiment in a line: JAK2 enzyme assay (Caliper LabChip, peptide phosphorylation). The note with it: 25 μM ATP. It counts as biochemical.
In test [2] the test system is JAK1-dependent STAT6 phosphorylation downstream of IL-13 stimulation in TF-1 human erythroleukemia cells. Briefly: JAK1 pathway assay in TF-1 cells (IL-13-pSTAT6, MSD). It is filed as cell-based. The note with it: Homo sapiens, TF-1, TF-1 cells, read-out: IL13-pSTAT6 EC50_TF-1. The method in brief:
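Inhibitors were added to TF-1 cells (GM-CSF-starved, serum-free) for 30 min or to BEAS-2B cells (complete medium) for 1 hr at 37° C. MSD detected pSTAT6.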

The target in test [3] is isolated recombinant JAK1 kinase domain (Homo sapiens (Human), UniProt P23458). Briefly: JAK1 enzyme assay (Caliper LabChip, peptide phosphorylation). The note with it: isolated recombinant JAK1 kinase domain, 25 μM ATP. It is filed as biochemical.
Sequence of isolated recombinant JAK1 kinase domain (P23458 875-1153): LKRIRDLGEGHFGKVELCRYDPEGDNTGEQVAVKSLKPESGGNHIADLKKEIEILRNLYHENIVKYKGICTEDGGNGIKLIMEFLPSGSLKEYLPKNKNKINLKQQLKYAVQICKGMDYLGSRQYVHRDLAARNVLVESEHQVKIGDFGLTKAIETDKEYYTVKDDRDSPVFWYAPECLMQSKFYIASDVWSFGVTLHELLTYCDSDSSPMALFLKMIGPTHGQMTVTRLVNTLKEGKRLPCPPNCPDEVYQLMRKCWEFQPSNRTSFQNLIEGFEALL

SMILES strings stand for the structures. pEC50, pKi: −log10 of the molar value.

Sequence of isolated recombinant JAK2 kinase domain (O60674 849-1124): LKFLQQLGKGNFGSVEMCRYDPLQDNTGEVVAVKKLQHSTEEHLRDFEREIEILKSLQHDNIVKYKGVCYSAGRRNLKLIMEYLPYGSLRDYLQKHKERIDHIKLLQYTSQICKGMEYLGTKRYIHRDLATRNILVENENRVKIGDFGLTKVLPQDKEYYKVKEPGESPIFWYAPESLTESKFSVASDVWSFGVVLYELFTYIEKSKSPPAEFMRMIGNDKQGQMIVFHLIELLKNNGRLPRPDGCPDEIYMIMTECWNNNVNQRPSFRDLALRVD

`O=C(Nc1sc(-c2ccc(CN3CC(F)(F)C3)cc2)nc1-c1cc(Cl)ccc1OC(F)F)c1cnn2cccnc12` [Example 257, N-[4-[5-chloro-2-(difluoromethoxy)phenyl]-2-[4-[(3,3-difluoroazetidin-1-yl)methyl]phenyl]thiazol-5-yl]pyrazolo[1,5-a]pyrimidine-3-carboxamide]: the pKi is 8.68 in test [1] and 8.53 in test [3]. Moreover, the pEC50 in test [2] was 6.00.
Taken in the same sequence, the figures for `CN(Cc1ccc(Cl)cc1)C1CCN(C(=O)Cn2cc(NC(=O)c3cnn4cccnc34)c(-c3cc(Cl)ccc3OC(F)F)n2)CC1` [Example 126, N-[3-[5-chloro-2-(difluoromethoxy)phenyl]-1-[2-[4-[(4-chlorophenyl)methyl-methyl-amino]-1-piperidyl]-2-oxo-ethyl]pyrazol-4-yl]pyrazolo[1,5-a]pyrimidine-3-carboxamide] were 8.74, 9.20 and 7.83.
Taken in the same sequence, the figures for `O=C(Nc1cn(C2CCN(CCCN3CCCC3=O)CC2)nc1-c1cc(Cl)ccc1OC(F)F)c1cnn2cccnc12` [Example 155, N-[3-[5-chloro-2-(difluoromethoxy)phenyl]-1-[1-[3-(2-oxopyrrolidin-1-yl)propyl]-4-piperidyl]pyrazol-4-yl]pyrazolo[1,5-a]pyrimidine-3-carboxamide] were 9.62, 8.81 and 8.29.
`Nc1nn2cccnc2c1C(=O)Nc1cn(C2CCN(CCCNC(=O)c3ccccc3)CC2)nc1-c1cc(Cl)ccc1OC(F)F` [Example 145, 2-amino-N-[1-[1-(3-benzamidopropyl)-4-piperidyl]-3-[5-chloro-2-(difluoromethoxy)phenyl]pyrazol-4-yl]pyrazolo[1,5-a]pyrimidine-3-carboxamide]: the pKi is 9.80 in test [1] and 9.24 in test [3]. In test [2], the pEC50 is 7.83.
Taken in the same sequence, the figures for `O=C(Nc1sc(-c2ccncc2)nc1-c1cc(Cl)ccc1OC(F)F)c1cnn2cccnc12` [Example 254, N-[4-[5-chloro-2-(difluoromethoxy)phenyl]-2-(4-pyridyl)thiazol-5-yl]pyrazolo[1,5-a]pyrimidine-3-carboxamide] were 9.11, 8.79 and 6.93.
Taken in the same sequence, the figures for `O=C(Nc1cn(C2CCN(CCCN3CCSCC3)CC2)nc1-c1cc(Cl)ccc1OC(F)F)c1cnn2cccnc12` [Example 159, N-[3-[5-chloro-2-(difluoromethoxy)phenyl]-1-[1-(3-thiomorpholinopropyl)-4-piperidyl]pyrazol-4-yl]pyrazolo[1,5-a]pyrimidine-3-carboxamide] were 9.62, 8.63 and 7.24.
Taken in the same sequence, the figures for `O=C(Nc1cn(CC(=O)N2C[C@H]3CN(CC4CCN(C(=O)C5CCOCC5)CC4)C[C@H]3C2)nc1-c1cc(Cl)ccc1OC(F)F)c1cnn2cccnc12` [Example 35, N-[1-[2-[(3aR,6aS)-2-[[1-(tetrahydropyran-4-carbonyl)-4-piperidyl]methyl]-1,3,3a,4,6,6a-hexahydropyrrolo[3,4-c]pyrrol-5-yl]-2-oxo-ethyl]-3-[5-chloro-2-(difluoromethoxy)phenyl]pyrazol-4-yl]pyrazolo[1,5-a]pyrimidine-3-carboxamide] were 9.14, 9.29 and 6.63.
Regarding `CNC(=O)CCCN1CCC(n2cc(NC(=O)c3cnn4cccnc34)c(-c3cc(Cl)ccc3OC(F)F)n2)CC1` [Example 168, N-[3-[5-chloro-2-(difluoromethoxy)phenyl]-1-[1-[4-(methylamino)-4-oxo-butyl]-4-piperidyl]pyrazol-4-yl]pyrazolo[1,5-a]pyrimidine-3-carboxamide], the values for the pKi in test [1] and in test [3] were 9.54 and 8.83, respectively. In addition, the pEC50 in test [2] was 8.11.
As for `O=C(Nc1cn(C2CCN(CCCC(=O)N3CCOCC3)CC2)nc1-c1cc(Cl)ccc1OC(F)F)c1cnn2cccnc12` [Example 169, N-[3-[5-chloro-2-(difluoromethoxy)phenyl]-1-[1-(4-morpholino-4-oxo-butyl)-4-piperidyl]pyrazol-4-yl]pyrazolo[1,5-a]pyrimidine-3-carboxamide], the negative logarithm of the Ki (pKi) was 9.66 in test [1] and 8.94 in test [3]. Moreover, in test [2], the pEC50 is 8.17.
Taken in the same sequence, the figures for `CN(CCOc1ccccc1Br)C1CCN(C(=O)Cn2cc(NC(=O)c3cnn4cccnc34)c(-c3cc(Cl)ccc3OC(F)F)n2)CC1` [Example 105, N-[1-[2-[4-[2-(2-bromophenoxy)ethyl-methyl-amino]-1-piperidyl]-2-oxo-ethyl]-3-[5-chloro-2-(difluoromethoxy)phenyl]pyrazol-4-yl]pyrazolo[1,5-a]pyrimidine-3-carboxamide] were 8.50, 8.84 and 7.30.
Taken in the same sequence, the figures for `Nc1nn2cccnc2c1C(=O)Nc1cn(C2CCN(CCCCOCCc3ccccc3)CC2)nc1-c1cc(Cl)ccc1OC(F)F` [Example 181, 2-amino-N-[3-[5-chloro-2-(difluoromethoxy)phenyl]-1-[1-[4-(2-phenylethoxy)butyl]-4-piperidyl]pyrazol-4-yl]pyrazolo[1,5-a]pyrimidine-3-carboxamide] were 9.32, 8.70 and 7.02.
Taken in the same sequence, the figures for `CN(C)C1CCN(Cc2nc(-c3cc(Cl)ccc3OC(F)F)c(NC(=O)c3cnn4cccnc34)s2)CC1` [Example 260, Pyrazolo[1,5-a]pyrimidine-3-carboxylic acid [4-(5-chloro-2-difluoromethoxy-phenyl)-2-(4-dimethylamino-piperidin-1-ylmethyl)-thiazol-5-yl]-amide] were 8.58, 8.11 and 7.16.
On to `CN1CCN(CCCN2CCC(n3cc(NC(=O)c4c(N)nn5cccnc45)c(-c4cc(Cl)ccc4OC(F)F)n3)CC2)C1=O` [Example 164, 2-amino-N-[3-[5-chloro-2-(difluoromethoxy)phenyl]-1-[1-[3-(3-methyl-2-oxo-imidazolidin-1-yl)propyl]-4-piperidyl]pyrazol-4-yl]pyrazolo[1,5-a]pyrimidine-3-carboxamide], for which the pKi was 10.22 in test [1] and 9.36 in test [3]. Also, the pEC50 in test [2] is 8.25.
Taken in the same sequence, the figures for `O=C(Nc1cn(CC(=O)N2C[C@H]3CNC[C@H]3C2)nc1-c1cc(Cl)ccc1OC(F)F)c1cnn2cccnc12` [Example 4, Cis-pyrazolo[1,5-a]pyrimidine-3-carboxylic acid {3-(5-chloro-2-difluoromethoxyphenyl)-1-[2-(hexahydropyrrolo[3,4-c]pyrrol-2-yl)-2-oxoethyl]-1H-pyrazol-4-yl}amide] were 9.10, 9.18 and 6.26.
Taken in the same sequence, the figures for `O=C(Nc1cn(CC(=O)N2C[C@H]3CN(CCOCc4ccc(Cl)cc4)C[C@H]3C2)nc1-c1cc(Cl)ccc1OC(F)F)c1cnn2cccnc12` [Example 60, N-[1-[2-[(3aR,6aS)-2-[2-[(4-chlorophenyl)methoxy]ethyl]-1,3,3a,4,6,6a-hexahydropyrrolo[3,4-c]pyrrol-5-yl]-2-oxo-ethyl]-3-[5-chloro-2-(difluoromethoxy)phenyl]pyrazol-4-yl]pyrazolo[1,5-a]pyrimidine-3-carboxamide] were 9.15, 8.96 and 7.34.
With `Nc1nn2cccnc2c1C(=O)Nc1cn(CC(=O)N2CCNCC2)nc1-c1cc(Cl)ccc1OC(F)F` [Example 249, 2-amino-N-[3-[5-chloro-2-(difluoromethoxy)phenyl]-1-(2-oxo-2-piperazin-1-yl-ethyl)pyrazol-4-yl]pyrazolo[1,5-a]pyrimidine-3-carboxamide], the pKi in test [1] is 9.36; in test [3], 9.14. In addition, the pEC50 in test [2] is 7.49.
Taken in the same sequence, the figures for `O=C(Nc1cn(CC(=O)N2CCC(N3CCCC3)CC2)nc1-c1cc(Cl)ccc1OC(F)F)c1cnn2cccnc12` [Example 69, N-[3-[5-chloro-2-(difluoromethoxy)phenyl]-1-[2-oxo-2-(4-pyrrolidin-1-yl-1-piperidyl)ethyl]pyrazol-4-yl]pyrazolo[1,5-a]pyrimidine-3-carboxamide] were 8.61, 9.07 and 7.69.
Taken in the same sequence, the figures for `O=C(Nc1cn(CC(=O)N2CCC(N(CCc3ccccc3)CC(F)(F)F)CC2)nc1-c1cc(Cl)ccc1OC(F)F)c1cnn2cccnc12` [Example 103, N-[3-[5-chloro-2-(difluoromethoxy)phenyl]-1-[2-oxo-2-[4-[2-phenylethyl(2,2,2-trifluoroethyl)amino]-1-piperidyl]ethyl]pyrazol-4-yl]pyrazolo[1,5-a]pyrimidine-3-carboxamide] were 8.10, 8.40 and 6.58.
With `O=C(CCCN1CCC(n2cc(NC(=O)c3cnn4cccnc34)c(-c3cc(Cl)ccc3OC(F)F)n2)CC1)NC1COC1` [Example 153, N-[3-[5-chloro-2-(difluoromethoxy)phenyl]-1-[1-[4-(oxetan-3-ylamino)-4-oxo-butyl]-4-piperidyl]pyrazol-4-yl]pyrazolo[1,5-a]pyrimidine-3-carboxamide], the pKi in test [1] was 9.57; in test [3], 8.81. Moreover, the pEC50 in test [2] is 7.44.
Taken in the same sequence, the figures for `Nc1nn2cccnc2c1C(=O)Nc1cn(C2CCN(CCCC(=O)NCc3ccccc3)CC2)nc1-c1cc(Cl)ccc1OC(F)F` [Example 167, 2-amino-N-[1-[1-[4-(benzylamino)-4-oxo-butyl]-4-piperidyl]-3-[5-chloro-2-(difluoromethoxy)phenyl]pyrazol-4-yl]pyrazolo[1,5-a]pyrimidine-3-carboxamide] were 9.74, 9.28 and 7.71.

The values above are taken from patent US9346815B2, “5-chloro-2-difluoromethoxyphenyl pyrazolopyrimidine compounds, compositions and methods of use thereof” (Genentech, Inc., priority 2014, dated 2016).
